{
  "source": "patent US11352400B2",
  "about": "“PI3K gamma inhibitor peptide for treatment of respiratory system diseases” (Kither Biotech S.r.I., priority 2014, dated 2022)",
  "key": {"[1]": {"test_system": "lung inflammation in mice sensitized with ovalbumin", "experiment": "Analysis of airway inflammation in asthmatic mice", "format": "in vivo, BALB/C mice", "conditions": "OVA-sensitized mice, vs P1", "description": "Ovalbumin (100 μg) (OVA, Sigma-Aldrich, St. Louis, Mo.), complexed with aluminum potassium sulfate (1 mg, alum) was administered intraperitoneally (i.p.) on days 1 and 14, and intra-nasally (i.n.) (50 μg OVA in 50 μl PBS) on days 14, 25, 26, and 27. Control mice received i.p. injections of alum and i.n. injections of PBS only. Airway hyperreactivity induced by inhaled methacholine was measured at 24 hours after the final dose of OVA (Day 28).\nWild-type BALB/C mice were treated, by intra-tracheal instillation, with 25 μg of the Trojan peptide derived from PI3Kγ or equimolar amounts of P1 control peptide, in a final volume of 70 μL of phosphate-buffered saline (PBS), before each intranasal administration of ovalbumin (days 14, 25, 26, and 27 of the protocol of immunization with ovalbumin). At 24 hours after the final injection (day 28), mice were anesthetized (sodium pentobarbital, 70-90 mg/kg, i.p.) and the tracheas incised and cannulated. The airways were washed with 2.5 ml of phosphate-buffered saline solution (PBS). The total number of cells in the bronchoalveolar lavage (BAL) was determined with a Neubauer hemocytometer. A volume of 50 μL of BAL was centrifuged onto cytospin glass slides at 400 rpm at room temperature for 5 minutes and stained with a Diff-Quick system (LabAids, Ronkonkoma, USA). A total of 100 cells per slide were counted and classified as neutrophils, macrophages, lymphocytes and eosinophils on the basis of morphological criteria. Erythrocytes and epithelial cells were ignored and the results were expressed as cells/ml.\nTo assess the peribronchial inflammation, the lungs of a group of animals that had not been subjected to bronchoalveolar lavage were explanted, fixed in a solution of 4% paraformaldehyde (PFA) for 24 hours at 4° C. and embedded in paraffin. Slices that were 5 μm-thick, deparaffinized, stained with a hematoxylin-eosin solution (Bio-Optica, Milano, Italy), dehydrated and mounted with glass coverslips. The extent of peribronchial inflammation was classified as follows: 0—normal; 1—few inflammatory cells; 3—a thick ring of inflammatory cells.\nTo evaluate the presence of goblet cells, lung slices were stained with periodic acid-Schiff's reagent (PAS) (Bio-Optica, Milano, Italy) and the percentage of PAS-positive cells was calculated by counting the number of PAS-positive epithelial cells and total epithelial cells."}, "[2]": {"test_system": "airway hyperreactivity induced by the muscarinic agonist methacholine in healthy mice", "experiment": "Airway hyperreactivity to methacholine in healthy mice", "format": "in vivo, BALB/C mice", "conditions": "peptide 1.5 μg or equimolar P1, increasing doses of methacholine"}, "[3]": {"test_system": "Cav1.2 subunit (Ser-1928) of the L-type calcium channel (LTCC)", "experiment": "Western blot of cAMP-dependent phosphorylation of Cav1.2 in hBSMCs", "format": "cell-based, human", "conditions": "50 μM, 30 minutes, vs vehicle or P1", "description": "For protein extraction from murine tracheal smooth muscle cells (mTSMCs) and human bronchial smooth muscle cells (hBSMCs), cells were treated with the indicated drugs/peptides and immediately lysed in cold lysis buffer containing 120 mmol/L NaCl, 50 mmol/L Tris-HCl (pH 8.0), complete protease inhibitors (Roche Applied Science, Indianapolis, Ind.) and phosphatase inhibitors (50 mmol/L sodium fluoride, 1 mmol/L sodium orthovanadate and 10 mmol/L sodium pyrophosphate). After 30 min of incubation on ice, lysates were centrifuged at 13000 rpm for 10 min at 4° C. and used for either Western blotting or subjected to immunoprecipitation and measurements of phosphodiesterase activity."}, "[4]": {"test_system": "cAMP levels in the airways", "experiment": "cAMP extraction and quantification in trachea and lungs of treated mice", "format": "in vivo, BALB/C mice", "conditions": "intra-tracheal, 1.5 μg/mouse, 30 minutes; vs PBS or P1 control peptide", "description": "Lungs and trachea were explanted from animals following euthanasia, pulverized in liquid nitrogen and used for cold extraction of cAMP with 6% trichloroacetic acid. Samples were sonicated for 10 seconds and centrifuged at 13000 rpm at 4° C. for 15 minutes. Supernatants were washed four times with five volumes of diethyl ether saturated with water and lyophilized. cAMP content was detected with an Amersham cAMP BioTrak Enzymeimmunoassay System (GE Healthcare Life Sciences, Pittsburgh, USA, product code: RPN225), according to the manufacturer's protocol.\nWild-type BALB/C mice were injected by the intra-tracheal route with 1.5 μg of the Trojan peptide derived from PI3Kγ conjugated to fluorescein or vehicle, in a final volume of 70 μL of PBS. After 30 minutes, animals were anesthetized, the trachea and lungs were insufflated with PBS, extracted and frozen in OCT. Cryosections of 10 microns were obtained with a Leica CM1850 cryostat (Leica Microsystems GmbH, Wetzlar, Germany) and fluorescence was acquired with a Zeiss Observer-Z1, equipped with an Apotome module (Carl Zeiss, Oberkochen, Germany)."}, "wild-type CFTR": {"test_system": "wild-type CFTR", "experiment": "Chloride currents in Ussing chamber, NuLi-1 cells", "format": "cell-based, human", "conditions": "peptide 10-30 μM, P1 30 μM", "description": "Human airway epithelial cell lines expressing a wild-type CFTR (NuLi-1) or with the ΔF508 mutation (CuFi-1) were purchased from ATCC (NuLi-1 product code: ATCC® CRL-4011™; CuFi-1 product code: ATCC® CRL-4013™). Cells were cultured in Dulbecco's Modified Eagle Medium (DMEM, Gibco, Carlsbad, Calif.) supplemented with 10% fetal bovine serum (FBS), 30 μg/mL of penicillin, 100 μg/mL of streptomycin and 300 μg/mL hygromycin B (Gibco, Carlsbad, Calif.).\nTo measure chloride currents in normal and ΔF508 primary human bronchial epithelial cells, cells were cultured on 1.12 cm^2 Snapwell inserts. Filters were mounted in Ussing chambers, and a chloride gradient was applied by incubating the cells in a basolateral high-chloride buffer containing (in mmol/L): 140 NaCl, 5 KCl, 0.36 K2HPO4, 0.44 KH2PO4, 1.3 CaCl2, 0.5 MgCl2, 4.2 NaHCO3, 10 HEPES, and 10 glucose, at pH 7.4 and an apical low-chloride buffer containing (in mmol/L): 133.3 Na-gluconate, 5 K-gluconate, 2.5 NaCl, 0.36 K2HPO4, 0.44 KH2PO4, 5.7 CaCl2, 0.5 MgCl2, 4.2 NaHCO3, 10 HEPES, and 10 mannitol, at pH 7.4. Buffers were aerated with a mixture of 95% O2 and 5% CO2 and the temperature was maintained at 37° C. during the experiment. […] After a stabilization period of 30 minutes, drugs were added at specific times, while the current was continuously recorded."}, "[5]": {"conditions": "25 μg/mouse intra-tracheal before each intranasal OVA"}},
  "data": [
    {"sequence": "RQIKIWFQNRRMKWKKGKATHRSPGQIHLVQRHPPSEESQAF (fusion peptide comprising SEQ ID No.1 and SEQ ID No.3) [Trojan peptide derived from PI3Kγ]", "values": [
      {"measurement": "number of goblet cells (PAS-positive)", "setting": "[1]; [5]", "value": "significantly reduced"},
      {"measurement": "number of neutrophils in the bronchoalveolar lavage", "setting": "[1]; [5]", "value": "significantly lower"},
      {"measurement": "peribronchial inflammatory infiltrate", "setting": "[1]; [5]", "value": "significantly reduced"},
      {"measurement": "eosinophils in the bronchoalveolar lavage", "setting": "[1]; 25 μg/mouse", "value": "unchanged"},
      {"measurement": "lymphocytes in the bronchoalveolar lavage", "setting": "[1]; 25 μg/mouse", "value": "unchanged"},
      {"measurement": "macrophages in the bronchoalveolar lavage", "setting": "[1]; 25 μg/mouse", "value": "unchanged"},
      {"measurement": "airway hyperreactivity induced by methacholine (average lung resistance)", "setting": "[2]", "value": "significantly attenuated"},
      {"measurement": "cAMP-mediated phosphorylation of Cav1.2", "setting": "[3]", "value": "significantly higher"},
      {"measurement": "cAMP levels in the trachea and in the lungs, higher than controls", "setting": "[4]", "value": 30, "unit": "%"},
      {"measurement": "CFTR-dependent Cl− currents", "setting": "wild-type CFTR", "value": "increased significantly"}
    ]}
  ]
}
